In US6518243B1, “Desleucyl glycopeptide antibiotics and methods of making same” (Trustees of Princeton University, priority 1999, dated 2003):

Tests used:
E. faecium ATCC 49624 = assay: MIC determination in BHI media, OD600; assay type: cell-based; details: BHI + 0.1% casamino acids, 18 hours at 37° C., ≧90% OD600 inhibition
How it was run: (§1)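 Inoculum ~5×10^5 CFU/ml from log-phase culture; compounds in DMSO, serial dilution; 18 h, 37° C; plate read for growth, MIC called per concentration.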

S. Aureus ATCC 33591 = assay: MIC determination in BHI media, OD600; assay type: cell-based; details: BHI + 0.1% casamino acids, 18 hours at 37° C., ≧90% OD600 inhibition
How it was run: as §1

S aureus ATCC 29213 = assay: MIC determination in BHI media, OD600; assay type: cell-based; details: BHI + 0.1% casamino acids, 18 hours at 37° C., ≧90% OD600 inhibition
How it was run: as §1

E. faecium CL 4931 = assay: MIC determination in BHI media, OD600; assay type: cell-based; details: BHI + 0.1% casamino acids, 18 hours at 37° C., ≧90% OD600 inhibition
How it was run: as §1

E. Faecalis CL 4877 = assay: MIC determination in BHI media, OD600; assay type: cell-based; details: BHI + 0.1% casamino acids, 18 hours at 37° C., ≧90% OD600 inhibition
How it was run: as §1

E. faceium (ATCC 49624) = assay: Zone of inhibition screen, 96 well agar array format;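 further: score 3 means fourfold and score 4 sixteenfold the reference zone size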; assay type: cell-based, E. faecium; details: zone of inhibition relative to 1 mg/ml stock solution of p-chlorobiphenylvancomycin
How it was run: (§2)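 Agar-array screen, 96-well; single compounds vs. strain panel (panel also incl. E. faecium ATCC 49624); antibacterial activity scored.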

E. faecalis (CL 4877) = assay: as above; assay type: cell-based; set-up: scale not given here; details: zone of inhibition relative to 1 mg/ml stock solution of p-chlorobiphenylvancomycin
How it was run: as §2

[1] = test system: E. faecalis (ATCC 292121); assay: as above; assay type: cell-based; details: zone of inhibition relative to 1 mg/ml stock solution of p-chlorobiphenylvancomycin
Experimental: The antibacterial activity of each of the compounds against the bacterial strains E. faceium (ATCC 49624), S. epidermidis (ATCC 12228), S. aureus (ATCC 29213), E. faecalis (CL 4877) and E. faecalis (ATCC 292121) was tested. Each of the compounds was screened in a 96 will agar array format.

E. faecalis ATCC 29212 = assay: MIC determination in BHI media, OD600; assay type: cell-based; details: BHI + 0.1% casamino acids, 18 hours at 37° C., ≧90% OD600 inhibition
How it was run: as §1

S. aureus (ATCC 29213) = assay: Zone of inhibition screen, 96 well agar array format; assay type: cell-based; set-up: scale not given here; details: zone of inhibition relative to 1 mg/ml stock solution of p-chlorobiphenylvancomycin
How it was run: as §2

[2] = test system: S. epidermidis (ATCC 12228); assay: as above; assay type: cell-based; set-up: scale not given here; details: zone of inhibition relative to 1 mg/ml stock solution of p-chlorobiphenylvancomycin
How it was run: as §2
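Wherever zone score, E. faecalis ATCC 29212 is given: score 3 means fourfold and score 4 sixteenfold the reference zone size.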

SMILES | MIC E. faecium ATCC 49624 (E. faecium ATCC 49624) | MIC S. aureus ATCC 33591 (S. Aureus ATCC 33591) | MIC S. aureus ATCC 29213 (S aureus ATCC 29213) | MIC E. faecium CL 4931 (E. faecium CL 4931) | MIC E. faecalis CL 4877 (E. Faecalis CL 4877) | zone score, E. faecium ATCC 49624 (E. faceium (ATCC 49624)) | zone score, E. faecalis CL 4877 (E. faecalis (CL 4877)) | zone score, E. faecalis ATCC 29212 [1] | MIC E. faecalis ATCC 29212 (E. faecalis ATCC 29212) | zone score, S. aureus ATCC 29213 (S. aureus (ATCC 29213)) | zone score, S. epidermidis ATCC 12228 [2]
CN[C@H](CC(C)C)C(=O)N[C@H]1C(=O)N[C@@H](CC(N)=O)C(=O)N[C@H]2C(=O)N[C@H]3C(=O)N[C@H](C(=O)N[C@H](C(=O)O)c4cc(O)cc(O)c4-c4cc3ccc4O)[C@H](O)c3ccc(c(Cl)c3)Oc3cc2cc(c3O[C@@H]2O[C@H](CO)[C@@H](O)[C@H](O)[C@H]2O[C@H]2C[C@](C)(N)[C@H](O)[C@H](C)O2)Oc2ccc(cc2Cl)[C@H]1O [Compound 0, Vancomycin, reference compound] | 1.25 µg/mL | 2.5 µg/mL | 1.25 µg/mL | > 250 µg/mL | > 250 µg/mL |  |  |  |  |  | 
C[C@H](N)C(=O)N[C@H]1C(=O)N[C@@H](CC(N)=O)C(=O)N[C@H]2C(=O)N[C@H]3C(=O)N[C@H](C(=O)N[C@@H](C(=O)O)c4cc(O)cc(O)c4-c4cc3ccc4O)[C@H](O)c3ccc(c(Cl)c3)Oc3cc2cc(c3O[C@@H]2O[C@H](CO)[C@@H](O)[C@H](O)[C@H]2O[C@@H]2C[C@@](C)(NCc3ccc(-c4ccc(Cl)cc4)cc3)[C@@H](O)[C@@H](C)O2)Oc2ccc(cc2Cl)[C@H]1O [Compound 1] | 0.78 µg/mL | 0.78 µg/mL | 0.78 µg/mL | 25 µg/mL | 25 µg/mL | 2 |  |  |  |  | 
CNCC(=O)N[C@H]1C(=O)N[C@@H](CC(N)=O)C(=O)N[C@H]2C(=O)N[C@H]3C(=O)N[C@H](C(=O)N[C@@H](C(=O)O)c4cc(O)cc(O)c4-c4cc3ccc4O)[C@H](O)c3ccc(c(Cl)c3)Oc3cc2cc(c3O[C@@H]2O[C@H](CO)[C@@H](O)[C@H](O)[C@H]2O[C@@H]2C[C@@](C)(NCc3ccc(-c4ccc(Cl)cc4)cc3)[C@@H](O)[C@@H](C)O2)Oc2ccc(cc2Cl)[C@H]1O [Compound 8] |  |  |  |  |  |  | 2 | 2 |  |  | 
C[C@H]1O[C@H](O[C@H]2[C@H](Oc3c4cc5cc3Oc3ccc(cc3Cl)[C@@H](O)[C@@H](NC(=O)[C@H](N)COC(C)(C)C)C(=O)N[C@@H](CC(N)=O)C(=O)N[C@H]5C(=O)N[C@H]3C(=O)N[C@H](C(=O)N[C@@H](C(=O)O)c5cc(O)cc(O)c5-c5cc3ccc5O)[C@H](O)c3ccc(c(Cl)c3)O4)O[C@H](CO)[C@@H](O)[C@@H]2O)C[C@@](C)(NCc2ccc(-c3ccc(Cl)cc3)cc2)[C@H]1O [Compound 17] | 0.062 µg/mL | 0.12 µg/mL | 0.062 µg/mL |  | 3.91 µg/mL |  |  |  | 0.25 µg/mL |  | 
C[C@H](OC(C)(C)C)[C@@H](N)C(=O)N[C@H]1C(=O)N[C@@H](CC(N)=O)C(=O)N[C@H]2C(=O)N[C@H]3C(=O)N[C@H](C(=O)N[C@@H](C(=O)O)c4cc(O)cc(O)c4-c4cc3ccc4O)[C@H](O)c3ccc(c(Cl)c3)Oc3cc2cc(c3O[C@@H]2O[C@H](CO)[C@@H](O)[C@H](O)[C@H]2O[C@@H]2C[C@@](C)(NCc3ccc(-c4ccc(Cl)cc4)cc3)[C@@H](O)[C@@H](C)O2)Oc2ccc(cc2Cl)[C@H]1O [Compound 18] | 0.25 µg/mL | 0.78 µg/mL | 0.78 µg/mL | 25 µg/mL | 25 µg/mL | 2 |  |  |  | 2 | 
C[C@H]1O[C@H](O[C@H]2[C@H](Oc3c4cc5cc3Oc3ccc(cc3Cl)[C@@H](O)[C@@H](NC(=O)CN)C(=O)N[C@@H](CC(N)=O)C(=O)N[C@H]5C(=O)N[C@H]3C(=O)N[C@H](C(=O)N[C@@H](C(=O)O)c5cc(O)cc(O)c5-c5cc3ccc5O)[C@H](O)c3ccc(c(Cl)c3)O4)O[C@H](CO)[C@@H](O)[C@@H]2O)C[C@@](C)(NCc2ccc(-c3ccc(Cl)cc3)cc2)[C@H]1O [Compound 28] |  |  |  |  |  | 2 | 2 | 2 |  |  | 
C[C@H]1O[C@H](O[C@H]2[C@H](Oc3c4cc5cc3Oc3ccc(cc3Cl)[C@@H](O)[C@@H](NC(=O)[C@@H]3CC(OC(C)(C)C)CN3)C(=O)N[C@@H](CC(N)=O)C(=O)N[C@H]5C(=O)N[C@H]3C(=O)N[C@H](C(=O)N[C@@H](C(=O)O)c5cc(O)cc(O)c5-c5cc3ccc5O)[C@H](O)c3ccc(c(Cl)c3)O4)O[C@H](CO)[C@@H](O)[C@@H]2O)C[C@@](C)(NCc2ccc(-c3ccc(Cl)cc3)cc2)[C@H]1O (some centres unmarked) [Compound 30] | 0.78 µg/mL |  |  | 25 µg/mL | 25 µg/mL | 2 |  |  |  |  | 
CC1OC(OC2C(Oc3c4cc5cc3Oc3ccc(cc3Cl)C(O)C3NC(=O)C(NC(=O)C5NC(=O)C(CC(N)=O)NC(=O)C(NC(=O)C(N)CCC(N)=O)C(O)c5ccc(c(Cl)c5)O4)c4ccc(O)c(c4)-c4c(O)cc(O)cc4C(C(=O)O)NC3=O)OC(CO)C(O)C2O)CC(C)(NCc2ccc(-c3ccc(Cl)cc3)cc2)C1O (centres unmarked) [Compound 57] |  |  |  |  |  | 2 |  | 2 |  |  | 
CC(O)C(N)C(=O)NC1C(=O)NC(CC(N)=O)C(=O)NC2C(=O)NC3C(=O)NC(C(=O)NC(C(=O)O)c4cc(O)cc(O)c4-c4cc3ccc4O)C(O)c3ccc(c(Cl)c3)Oc3cc2cc(c3OC2OC(CO)C(O)C(O)C2OC2CC(C)(NCc3ccc(-c4ccc(Cl)cc4)cc3)C(O)C(C)O2)Oc2ccc(cc2Cl)C1O (centres unmarked) [Compound 64] | 0.39 µg/mL | 0.78 µg/mL | 0.78 µg/mL | 25 µg/mL |  |  | 2 | 2 |  |  | 
CC1OC(OC2C(Oc3c4cc5cc3Oc3ccc(cc3Cl)C(O)C3NC(=O)C(NC(=O)C5NC(=O)C(CC(N)=O)NC(=O)C(NC(=O)C(N)CCCCNC=O)C(O)c5ccc(c(Cl)c5)O4)c4ccc(O)c(c4)-c4c(O)cc(O)cc4C(C(=O)O)NC3=O)OC(CO)C(O)C2O)CC(C)(NCc2ccc(-c3ccc(Cl)cc3)cc2)C1O (centres unmarked) [Compound 79] | 0.78 µg/mL |  |  | 25 µg/mL | 25 µg/mL | 2 |  |  |  | 2 | 
CC1OC(OC2C(Oc3c4cc5cc3Oc3ccc(cc3Cl)C(O)C3NC(=O)C(NC(=O)C5NC(=O)C(CC(N)=O)NC(=O)C(NC(=O)C(N)CC[S+](C)[O-])C(O)c5ccc(c(Cl)c5)O4)c4ccc(O)c(c4)-c4c(O)cc(O)cc4C(C(=O)O)NC3=O)OC(CO)C(O)C2O)CC(C)(NCc2ccc(-c3ccc(Cl)cc3)cc2)C1O (centres unmarked) [Compound 81] | 0.78 µg/mL |  | 0.78 µg/mL | 25 µg/mL | 25 µg/mL | 2 |  |  |  |  | 2
CC1OC(OC2C(Oc3c4cc5cc3Oc3ccc(cc3Cl)C(O)C3NC(=O)C(NC(=O)C5NC(=O)C(CC(N)=O)NC(=O)C(N)C(O)c5ccc(c(Cl)c5)O4)c4ccc(O)c(c4)-c4c(O)cc(O)cc4C(C(=O)O)NC3=O)OC(CO)C(O)C2O)CC(C)(NCc2ccc(-c3ccc(Cl)cc3)cc2)C1O (centres unmarked) [Compound 522, Des-Lecyl Vancomycin, reference compound] | > 25 µg/mL | > 25 µg/mL | > 25 µg/mL | > 25 µg/mL | > 25 µg/mL |  |  |  | > 25 µg/mL |  | 
COCC(N)C(=O)NC1C(=O)NC(CC(N)=O)C(=O)NC2C(=O)NC3C(=O)NC(C(=O)NC(C(=O)O)c4cc(O)cc(O)c4-c4cc3ccc4O)C(O)c3ccc(c(Cl)c3)Oc3cc2cc(c3OC2OC(CO)C(O)C(O)C2OC2CC(C)(NCc3ccc(-c4ccc(Cl)cc4)cc3)C(O)C(C)O2)Oc2ccc(cc2Cl)C1O (centres unmarked) [Compound 525] | 0.25 µg/mL | 0.39 µg/mL | 0.39 µg/mL | 25 µg/mL | 25 µg/mL |  |  |  |  |  | 
C[C@H]1O[C@H](O[C@H]2[C@H](Oc3c4cc5cc3Oc3ccc(cc3Cl)[C@@H](O)[C@@H](NC(=O)[C@H](N)Cc3cccnc3)C(=O)N[C@@H](CC(N)=O)C(=O)N[C@H]5C(=O)N[C@H]3C(=O)N[C@H](C(=O)N[C@@H](C(=O)O)c5cc(O)cc(O)c5-c5cc3ccc5O)[C@H](O)c3ccc(c(Cl)c3)O4)O[C@H](CO)[C@@H](O)[C@@H]2O)C[C@@](C)(NCc2ccc(-c3ccc(Cl)cc3)cc2)[C@H]1O [Compound 556] | 0.39 µg/mL | 0.39 µg/mL | 0.78 µg/mL | 25 µg/mL | 25 µg/mL |  |  |  | 0.78 µg/mL |  | 
